Data as given in ChEMBL document CHEMBL1201862, “PubChem BioAssay data set” (2004).
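48-hour exposure; five concentrations; linearly interpolated endpoints. The concentration for 50% growth inhibition is given as GI50.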 The source made the active and inactive calls. No stated cut-off is given here; in the data, active = GI50 up to about 1.1 µM and inactive = higher.

Assays:
Test in all cases: DTP human tumour cell line panel, 48 h
HL-60 = tested on: HL-60
HT-29 = tested on: HT-29
TK-10 = tested on: TK-10
UACC-257 = tested on: UACC-257
SK-MEL-28 = tested on: SK-MEL-28
SK-MEL-5 = tested on: SK-MEL-5
LOX IMVI = tested on: LOX IMVI
K562 = tested on: K562
SK-OV-3 = tested on: SK-OV-3
MDA-MB-231 = tested on: MDA-MB-231
OVCAR-8 = tested on: OVCAR-8
CCRF-CEM = tested on: CCRF-CEM
UO-31 = tested on: UO-31
Malme-3M = tested on: Malme-3M
MOLT-4 = tested on: MOLT-4
UACC-62 = tested on: UACC-62
HCT-15 = tested on: HCT-15
BT-549 = tested on: BT-549

Row | Structure (SMILES) | GI50 (HL-60) | GI50 (HT-29) | GI50 (TK-10) | GI50 (UACC-257) | GI50 (SK-MEL-28) | GI50 (SK-MEL-5) | GI50 (LOX IMVI) | GI50 (K562) | GI50 (SK-OV-3) | GI50 (MDA-MB-231) | GI50 (OVCAR-8) | GI50 (CCRF-CEM) | GI50 (UO-31) | GI50 (Malme-3M) | GI50 (MOLT-4) | GI50 (UACC-62) | GI50 (HCT-15) [µM] | GI50 (BT-549)
1 | CC(=O)Oc1cc2c(cc1OCC(F)(F)F)[C@H]1CC[C@]3(C)[C@@H](OC(C)=O)CC[C@H]3[C@@H]1CC2=O | 13.9 µM (inactive) | 23.9 µM (inactive) | 17.5 µM (inactive) | 18.9 µM (inactive) | 22.2 µM (inactive) | 17 µM (inactive) | 15.4 µM (inactive) | 16.6 µM (inactive) | 22 µM (inactive) | 11.1 µM (inactive) | 20.9 µM (inactive) | 15.3 µM (inactive) | 16 µM (inactive) | 16.8 µM (inactive) | 15.6 µM (inactive) | 12.2 µM (inactive) | 16.6 | 18.4 µM (inactive)
2 | Cc1c(-c2nc(N)nc(C3CC3)c2C)nc(N)nc1C1CC1 | > 100 µM (inactive) | > 100 µM (inactive) | > 100 µM (inactive) | > 100 µM (inactive) | > 100 µM (inactive) | > 100 µM (inactive) | > 100 µM (inactive) | > 100 µM (inactive) | > 100 µM (inactive) | > 100 µM (inactive) | > 100 µM (inactive) | > 100 µM (inactive) | > 100 µM (inactive) | > 100 µM (inactive) | > 100 µM (inactive) | > 100 µM (inactive) | > 100 | > 100 µM (inactive)
3 | COc1ccc(SCc2cc(OC)ccc2OC)cc1 | 6.01 µM (inactive) | 13.7 µM (inactive) | > 93.3 µM (inactive) | 74 µM (inactive) | 64.3 µM (inactive) | 16.1 µM (inactive) | 34.8 µM (inactive) | 4.24 µM (inactive) | 12 µM (inactive) | 82.2 µM (inactive) | 96.4 µM (inactive) | 17.5 µM (inactive) | 27.6 µM (inactive) | 55.6 µM (inactive) | 8.24 µM (inactive) | 18.8 µM (inactive) | 6.58 | 16.1 µM (inactive)
4 | CC(=O)OC[C@@]1(C)[C@@H]2[C@@H]3[C@@]4(CO[C@]3(C)C(=O)[C@@]3(O)C[C@H](C)[C@H](OC(C)=O)[C@@H]3[C@H]4OC(C)=O)[C@H](OC(=O)c3ccccc3)C[C@@H]21 | > 100 µM (inactive) | > 100 µM (inactive) | > 100 µM (inactive) | > 100 µM (inactive) | > 100 µM (inactive) | > 100 µM (inactive) | > 100 µM (inactive) | > 100 µM (inactive) | > 100 µM (inactive) | > 100 µM (inactive) | > 100 µM (inactive) | > 100 µM (inactive) | > 100 µM (inactive) | > 100 µM (inactive) | > 100 µM (inactive) | > 100 µM (inactive) | > 100 | > 100 µM (inactive)
5 | CC1=C(C(=O)OCCc2ccc([N+](=O)[O-])cc2)C(c2ccccc2C(F)(F)F)C(C(=O)OC(C)C)=C(C)N1 (stereo not given) | 1.79 µM (inactive) | 10.1 µM (inactive) | 3.78 µM (inactive) | 3.86 µM (inactive) | 4.89 µM (inactive) | 1.64 µM (inactive) | 2.96 µM (inactive) | 2.41 µM (inactive) | 3.97 µM (inactive) | 3.79 µM (inactive) | 4.04 µM (inactive) | 2.84 µM (inactive) | 4.19 µM (inactive) | 3.49 µM (inactive) | 2.08 µM (inactive) | 3.22 µM (inactive) | 3.78 | 3.21 µM (inactive)
6 | N/C(=N\N=C\c1nc2ccccc2o1)c1cnccn1 | 49.9 µM (inactive) | > 100 µM (inactive) | 30.7 µM (inactive) | > 100 µM (inactive) | > 100 µM (inactive) | > 100 µM (inactive) | > 100 µM (inactive) | > 100 µM (inactive) | 42.7 µM (inactive) | 51.2 µM (inactive) | > 100 µM (inactive) | > 100 µM (inactive) | > 100 µM (inactive) | 1.71 µM (inactive) | > 100 µM (inactive) | > 100 µM (inactive) | > 100 | > 100 µM (inactive)
7 | CN1C(=O)C(c2c[nH]c3ccccc23)N(C)C(=O)C1c1c[nH]c2ccccc12 (stereo not given) | > 100 µM (inactive) | > 100 µM (inactive) | > 100 µM (inactive) | > 100 µM (inactive) | > 100 µM (inactive) | > 100 µM (inactive) | > 100 µM (inactive) | > 100 µM (inactive) | > 100 µM (inactive) | 34.2 µM (inactive) | > 100 µM (inactive) | > 100 µM (inactive) | > 100 µM (inactive) | > 100 µM (inactive) | > 100 µM (inactive) | > 100 µM (inactive) | > 100 | > 100 µM (inactive)
8 | CCN(CC)C(=C(C(Cl)=C(Cl)Cl)[N+](=O)[O-])N(CC)CC | 29.6 µM (inactive) | > 100 µM (inactive) | > 100 µM (inactive) | 54.6 µM (inactive) | 49.1 µM (inactive) | > 100 µM (inactive) | 41 µM (inactive) | 46.5 µM (inactive) | > 100 µM (inactive) | > 100 µM (inactive) | > 100 µM (inactive) | 30.6 µM (inactive) | 30.2 µM (inactive) | 19.6 µM (inactive) | 27.2 µM (inactive) | 49.4 µM (inactive) | 62.2 | 83 µM (inactive)
9 | CSc1ncc2c(C#N)c3n(C)c4ccccc4n3c(=O)c2n1 | > 100 µM (inactive) | > 100 µM (inactive) | > 100 µM (inactive) | > 100 µM (inactive) | > 100 µM (inactive) | > 100 µM (inactive) | > 100 µM (inactive) | > 100 µM (inactive) | > 100 µM (inactive) | > 100 µM (inactive) | > 100 µM (inactive) | > 100 µM (inactive) | > 100 µM (inactive) | > 100 µM (inactive) | > 100 µM (inactive) | > 100 µM (inactive) | > 100 | > 100 µM (inactive)
10 | N#CCOc1cccc(C2(N3CC=CCC3)CCCCC2)c1 | 83.2 µM (inactive) | > 100 µM (inactive) | > 100 µM (inactive) | 72.3 µM (inactive) | > 100 µM (inactive) | > 100 µM (inactive) | 97.9 µM (inactive) | 43 µM (inactive) | > 100 µM (inactive) | > 100 µM (inactive) | 86.9 µM (inactive) | 42.3 µM (inactive) | > 100 µM (inactive) | > 100 µM (inactive) | 56.6 µM (inactive) | > 100 µM (inactive) | > 100 | > 100 µM (inactive)
11 | CSc1cc(Cl)c(C(=O)Nc2ccccc2)cc1S(=O)(=O)n1ccnc1O | > 100 µM (inactive) | > 100 µM (inactive) | > 100 µM (inactive) | > 100 µM (inactive) | > 100 µM (inactive) | > 100 µM (inactive) | > 100 µM (inactive) | > 100 µM (inactive) | > 100 µM (inactive) | > 100 µM (inactive) | > 100 µM (inactive) | > 100 µM (inactive) | > 100 µM (inactive) | > 100 µM (inactive) | > 100 µM (inactive) | > 100 µM (inactive) | > 100 | > 100 µM (inactive)
12 | O=C1c2ccccc2C(=O)c2c(NCC3CO3)cccc21 (stereo not given) | 5.27 µM (inactive) | 18.2 µM (inactive) | 40.9 µM (inactive) | > 56.2 µM (inactive) | > 41.7 µM (inactive) | 22.6 µM (inactive) | 1.38 µM (inactive) | 6.62 µM (inactive) | > 95.7 µM (inactive) | 15.2 µM (inactive) | 7.19 µM (inactive) | 1.43 µM (inactive) | 8.05 µM (inactive) | > 80.5 µM (inactive) | 3.77 µM (inactive) | 16 µM (inactive) | 7.23 | 19 µM (inactive)
13 | CN(C)c1ccc2c(SCC(=O)OCC(=O)[C@@]3(O)CC[C@H]4[C@@H]5CCC6=CC(=O)C=C[C@]6(C)[C@H]5C(=O)C[C@@]43C)c3ccc(N(C)C)cc3nc2c1 | 1.24 µM (inactive) | 2.02 µM (inactive) | 16.3 µM (inactive) | 15.7 µM (inactive) | 21.6 µM (inactive) | 15 µM (inactive) | 26.7 µM (inactive) | 2.64 µM (inactive) | 27.4 µM (inactive) | 27.5 µM (inactive) | 8.11 µM (inactive) | 1.35 µM (inactive) | 10.3 µM (inactive) | > 100 µM (inactive) | 2.65 µM (inactive) | 10.8 µM (inactive) | 3.3 | 9.59 µM (inactive)
14 | CC1(C)[C@@H]2CC[C@@]1(C)C1(S[S+]1[O-])C21Cc2ccccc2C1 (stereo not given in full) | 18.1 µM (inactive) | 17.9 µM (inactive) | 18.8 µM (inactive) | 20.9 µM (inactive) | 23.1 µM (inactive) | > 10 µM (inactive) | 15.1 µM (inactive) | 17.4 µM (inactive) | > 100 µM (inactive) | 17.3 µM (inactive) | 17.3 µM (inactive) | 5.25 µM (inactive) | 21.4 µM (inactive) | 38.8 µM (inactive) | 16.3 µM (inactive) | 22.2 µM (inactive) | 22.6 | 32.1 µM (inactive)
15 | CC[C@H](C)[C@H](NC(=O)[C@@]1(O)[C@H](O)[C@]2(CC)C=CCN3CC[C@@]4(c5cc(Br)c(OC)cc5N(C)[C@@H]14)[C@@H]32)C(=O)OC | 37.8 µM (inactive) | 11.6 µM (inactive) | 38.3 µM (inactive) | 24.9 µM (inactive) | 13.2 µM (inactive) | 24.4 µM (inactive) | 16.8 µM (inactive) | 67.1 µM (inactive) | 38 µM (inactive) | 15.7 µM (inactive) | 39.4 µM (inactive) | 27.8 µM (inactive) | 44.4 µM (inactive) | 21.9 µM (inactive) | 22.8 µM (inactive) | 12.6 µM (inactive) | 25.7 | 88.5 µM (inactive)
